Experimental data from patent US20250352539A1, “COMBINATION THERAPY FOR TREATING CANCER” (AstraZeneca AB, priority 2022, published 2025).
pIC50: −log10 of the molar value. Values joined by “and” are separate entries in the source; they are usually repeats but may differ in a detail not shown here. Identical values can stand only once. Like-named read-outs stand apart in the source and are kept apart here.

What was measured:
Assay type in all cases: cell-based
[1] = tested on: U87 IDH WT; experiment: 7 days treatment combination assay in glioblastoma cell lines (Hoeschst positive nuclei count); settings: 168 h, Adult GBM
Protocol: (§1) The assay was carried out in the following glioblastoma cell lines: • U87 • U87 R132H • T98G • SJ-G2 ctrl • SJ-G2 IDH using AZD6738 and AZD9574
(§2) The cells were seeded the day before drug treatment in 150 μl per well of 96-well plate. For SJ-G2 cells, the plates were coated with poly-Lysine solution for 15 minutes, washed twice with sterile water and dried for 1 hour.
(§3) The seeding numbers were (cells per well): U87-500; T98G-500; SJ-G2 ctrl-1000; SJ-G2 IDH.
(§4) The compounds were added via a drug dispenser according to the following scheme:
(§5) after 7 Days: • (a) for SJ-G2, 75 μl Cell Titer Glow 2.0 solution (Promega) was added and incubated for 15 minutes at 37° C. The cells were then read using a plate reader. • (b) for U87 and T98G, 75 μl of 37% formaldehyde was added and fixed for 20 minutes at room temperature. This was then washed twice with PBS, followed by Hoeschst staining for 1 hour at room temperature (Hoeschst 1:10000 in PBS). This was then washed twice in PBS and the plates sealed. The plates were then imaged on Cell Insight with 10× magnification at the 25 position. Hoeschst positive nuclei were identified as objects, and cell survival was analysed by counting objects (Hoeschst positive nuclei) with the corresponding settings for U87 or T98G.
(§6) An analysis of drug synergy was then carried out to yield a HSA score

[2] = tested on: T98G; experiment: as above; settings: Homo sapiens, 168 h, Adult GBM
Protocol: as §1, §2, §3, §4, §5, §6

[3] = tested on: U87 IDHm; experiment: as above; settings: 168 h, Adult GBM
Protocol: as §1, §2, §3, §4, §5, §6

[4] = tested on: Caov-3; experiment: 144-hour CellTiter-Glo 2.0 proliferation assay; settings: Homo sapiens; Caov-3 ovarian; monotherapy; read-out: mono GI50
Protocol: (§7) Combination profiling was carried out in a panel of cancer cell lines utilising Horizon Discovery's High Throughput Screening platform.
(§8) Cell lines that have been preserved in liquid nitrogen are thawed and expanded in growth media (see Table 1). Once cells have reached expected doubling times, screening begins. Cells are seeded in 25 μl of growth media in black 384-well tissue culture treated plates (seeding density as noted in Table 11).
(§9) Cells are equilibrated in assay plates via centrifugation and placed at 37° C. 5% CO2 for twenty-four hours before treatment.
(§10) Compounds are transferred to assay plates using and Echo acoustic liquid handling system. 25 nl of each compound was added at the appropriate concentration for all combination dose points. Therefore, final assay volume would be […]. Assay plates are incubated with compound for 6 days and are then analysed using CellTiter-Glo 2.0. All data points are collected via automated processes and are subject to quality control and analysed.
(§11) Growth Inhibition (GI) is reported as a measure of cell growth. The GI percentages are calculated by applying the following test and equation: […]
(§12) where T is the signal measure for a test article, V is the untreated/vehicle-treated control measure, and Vo is the untreated/vehicle control measure at time zero (also colloquially referred as T0 plates). This formula is derived from the Growth Inhibition calculation used in the National Cancer Institute's NCI-60 high throughput screen. For the purposes of this report, all data analysis was performed in Growth Inhibition (except where noted).

[5] = tested on: HT-115; experiment: 144-hour CellTiter-Glo 2.0 proliferation assay; settings: HT115; HT-115 colorectal; monotherapy; read-out: mono GI50
Protocol: as §7, §8, §9, §10, §11, §12

[6] = tested on: RKO; experiment: 144-hour CellTiter-Glo 2.0 proliferation assay; settings: Homo sapiens; RKO colorectal; monotherapy; read-out: mono GI50
Protocol: as §7, §8, §9, §10, §11, §12

[7] = tested on: SK-OV-3; experiment: 144-hour CellTiter-Glo 2.0 proliferation assay; settings: Homo sapiens; SK-OV-3 ovarian; monotherapy; read-out: mono GI50
Protocol: as §7, §8, §9, §10, §11, §12

[8] = tested on: COV362; experiment: 144-hour CellTiter-Glo 2.0 proliferation assay; settings: COV362 ovarian; monotherapy; read-out: mono GI50
Protocol: as §7, §8, §9, §10, §11, §12

[9] = tested on: JHOM-1; experiment: 144-hour CellTiter-Glo 2.0 proliferation assay; settings: JHOM-1 ovarian; monotherapy; read-out: mono GI50
Protocol: as §7, §8, §9, §10, §11, §12

[10] = tested on: HGC-27; experiment: 144-hour CellTiter-Glo 2.0 proliferation assay; settings: Homo sapiens; HGC-27 gastric; monotherapy; read-out: mono GI50
Protocol: as §7, §8, §9, §10, §11, §12

[11] = tested on: HPAF-II; experiment: 144-hour CellTiter-Glo 2.0 proliferation assay; settings: Homo sapiens; HPAF-II pancreatic; monotherapy; read-out: mono GI50
Protocol: as §7, §8, §9, §10, §11, §12

[12] = tested on: MKN74; experiment: 144-hour CellTiter-Glo 2.0 proliferation assay; settings: Homo sapiens, MKN-74; MKN74 gastric; monotherapy; read-out: mono GI50
Protocol: as §7, §8, §9, §10, §11, §12

[13] = tested on: CFPAC-1; experiment: 144-hour CellTiter-Glo 2.0 proliferation assay; settings: Homo sapiens; CFPAC-1 pancreatic; monotherapy; read-out: mono GI50
Protocol: as §7, §8, §9, §10, §11, §12

[14] = tested on: NCI-SNU-1; experiment: 144-hour CellTiter-Glo 2.0 proliferation assay; settings: NCI-SNU-1 gastric; monotherapy; read-out: mono GI50
Protocol: as §7, §8, §9, §10, §11, §12

[15] = tested on: SNU-668; experiment: 144-hour CellTiter-Glo 2.0 proliferation assay; settings: SNU668; SNU-668 gastric; monotherapy; read-out: mono GI50
Protocol: as §7, §8, §9, §10, §11, §12

[16] = tested on: A2780; experiment: 144-hour CellTiter-Glo 2.0 proliferation assay; settings: Homo sapiens; A2780 ovarian; monotherapy; read-out: mono GI50
Protocol: as §7, §8, §9, §10, §11, §12

[17] = tested on: PSN1; experiment: 144-hour CellTiter-Glo 2.0 proliferation assay; settings: monotherapy, read-out: mono GI50
Protocol: as §7, §8, §9, §10, §11, §12

[18] = tested on: SNU-324; experiment: 144-hour CellTiter-Glo 2.0 proliferation assay; settings: SNU-324 pancreatic; monotherapy; read-out: mono GI50
Protocol: as §7, §8, §9, §10, §11, §12

[19] = tested on: MIA PaCa-2; experiment: 144-hour CellTiter-Glo 2.0 proliferation assay; settings: monotherapy, read-out: mono GI50
Protocol: as §7, §8, §9, §10, §11, §12

[20] = tested on: OVCAR-3; experiment: 144-hour CellTiter-Glo 2.0 proliferation assay; settings: Homo sapiens; OVCAR-3 ovarian; monotherapy; read-out: mono GI50
Protocol: as §7, §8, §9, §10, §11, §12

[21] = tested on: AGS; experiment: 144-hour CellTiter-Glo 2.0 proliferation assay; settings: Homo sapiens; AGS gastric; monotherapy; read-out: mono GI50
Protocol: as §7, §8, §9, §10, §11, §12

[22] = tested on: KP-3; experiment: 144-hour CellTiter-Glo 2.0 proliferation assay; settings: KP-3 pancreatic; monotherapy; read-out: mono GI50
Protocol: as §7, §8, §9, §10, §11, §12

[23] = tested on: KE-39; experiment: 144-hour CellTiter-Glo 2.0 proliferation assay; settings: KE-39 gastric; monotherapy; read-out: mono GI50
Protocol: as §7, §8, §9, §10, §11, §12

## C[C@@H]1COCCN1c1cc(C2([S@](C)(=N)=O)CC2)nc(-c2ccnc3[nH]ccc23)n1 [AZD6738, 4-{4-[(3R)-3-Methylmorpholin-4-yl]-6-[1-((R)—S-methylsulfonimidoyl)cyclopropyl]pyrimidin-2-yl}-1H-pyrrolo[2,3-b]-pyridine]
[1]
  pIC50: 6.19
[2]
  pIC50: 6.67
[3]
  pIC50: 6.12
[4]
  GI50: 197 nM
[5]
  GI50: 1610 nM
[6]
  GI50: 1020 nM
[7]
  GI50: 1280 nM
[8]
  GI50: 1060 nM
[9]
  GI50: 939 nM
[10]
  GI50: 1150 nM
[11]
  GI50: 1030 nM
[12]
  GI50: 741 nM
[13]
  GI50: 757 nM
[14]
  GI50: 1090 nM
[15]
  GI50: 291 nM
[16]
  GI50: 667 nM
[17]; Homo sapiens, PSN1, PSN1 pancreatic
  GI50: 858 nM
[17]; PSN1 pancreatic
  GI50: 746 nM
[18]
  GI50: 476 nM and 534 nM
[19]; Homo sapiens, MIA PaCa-2, MIA PaCa-2 pancreatic
  GI50: 1200 nM
[19]; MIA PaCa-2 pancreatic
  GI50: 1930 nM
[20]
  GI50: 370 nM
[21]
  GI50: 1210 nM
[22]
  GI50: 1280 nM and 1900 nM
[23]
  GI50: 1470 nM
